Test results published in ChEMBL document CHEMBL1201862, “PubChem BioAssay data set” (2004).
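Briefly, cells in 96-well plates were exposed to five compound concentrations for 48 h, and endpoints were estimated by linear interpolation. GI50 is the concentration that inhibits growth by half.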 Calls of active or inactive are those of the source. No stated cut-off is given here; in the data, active = GI50 up to about 1.1 µM and inactive = higher. Starred links: 1 amine or outer side, 2 acyl side, 3 side chain; linkers in the order of their positions; H or OH if unused. Positions of bridges follow the written chain, without caps; N, C: chain ends. Non-standard residues stand in square brackets, D forms with d. Residues, ends and D or L forms follow the SMILES beside them. Chains are numbered I, II in the order given. ξ: configuration not given here. X42 = N=C(N)NCCC[C@H](NC(=N)CCCCCCC(=N)N[C@@H](CCCNC(=N)N)C(=O)[*:2])C(=O)[*:1]; Oic(3aξ,7aξ) = O=C(O)[C@@H]1CC2CCCCC2N1; Igl = N[C@H](C(=O)O)C1Cc2ccccc2C1; Hyp = O=C(O)[C@@H]1C[C@@H](O)CN1

Experiments:
Test in all cases: NCI anticancer screen, dose series, 48 h
786-0 = system: 786-0
A498 = system: A498
A549 = system: A549
ACHN = system: ACHN
BT-549 = system: BT-549
CAKI-1 = system: CAKI-1
COLO 205 = system: COLO 205
DU-145 = system: DU-145
EKVX = system: EKVX
HCC 2998 = system: HCC 2998
HCT-116 = system: HCT-116
HCT-15 = system: HCT-15
HOP-62 = system: HOP-62
HOP-92 = system: HOP-92
IGROV-1 = system: IGROV-1
KM12 = system: KM12
M14 = system: M14
MCF7 = system: MCF7
MDA-MB-231 = system: MDA-MB-231
MDA-MB-435 = system: MDA-MB-435
MDA-N = system: MDA-N
Malme-3M = system: Malme-3M
NCI-H226 = system: NCI-H226
NCI-H23 = system: NCI-H23
NCI-H460 = system: NCI-H460
NCI-H522 = system: NCI-H522
NCI/ADR-RES = system: NCI/ADR-RES
OVCAR-3 = system: OVCAR-3
OVCAR-4 = system: OVCAR-4
OVCAR-5 = system: OVCAR-5
PC-3 = system: PC-3
RPMI-8226 = system: RPMI-8226
SF-268 = system: SF-268
SF-295 = system: SF-295
SK-MEL-28 = system: SK-MEL-28
SK-MEL-2 = system: SK-MEL-2
SK-MEL-5 = system: SK-MEL-5
SK-OV-3 = system: SK-OV-3
SN12C = system: SN12C
SNB-19 = system: SNB-19
SNB-75 = system: SNB-75
T47D = system: T47D
TK-10 = system: TK-10
U-251 = system: U-251
UACC-257 = system: UACC-257
UACC-62 = system: UACC-62
UO-31 = system: UO-31
CCRF-CEM = system: CCRF-CEM
HL-60 = system: HL-60
HT-29 = system: HT-29
Hs-578T = system: Hs-578T
K562 = system: K562
LOX IMVI = system: LOX IMVI
MOLT-4 = system: MOLT-4
RXF 393 = system: RXF 393
SF-539 = system: SF-539
SR = system: SR
SW-620 = system: SW-620

CCCCc1c(C(=O)OC(C)(C)C)cc(C#Cc2cc(C(=O)OC(C)(C)C)c(CCCC)c(C(=O)OC(C)(C)C)c2)cc1C(=O)OC(C)(C)C
GI50 (786-0): > 100 µM (inactive)
GI50 (A498): > 100 µM (inactive)
GI50 (A549): > 100 µM (inactive)
GI50 (ACHN): > 100 µM (inactive)
GI50 (BT-549): > 100 µM (inactive)
GI50 (CAKI-1): > 100 µM (inactive)
GI50 (COLO 205): > 100 µM (inactive)
GI50 (DU-145): > 100 µM (inactive)
GI50 (EKVX): > 100 µM (inactive)
GI50 (HCC 2998): > 100 µM (inactive)
GI50 (HCT-116): > 100 µM (inactive)
GI50 (HCT-15): > 100 µM
GI50 (HOP-62): > 100 µM (inactive)
GI50 (HOP-92): > 100 µM (inactive)
GI50 (IGROV-1): > 100 µM (inactive)
GI50 (KM12): > 100 µM (inactive)
GI50 (M14): > 100 µM (inactive)
GI50 (MCF7): > 100 µM (inactive)
GI50 (MDA-MB-231): > 100 µM (inactive)
GI50 (MDA-MB-435): > 100 µM (inactive)
GI50 (MDA-N): > 100 µM (inactive)
GI50 (Malme-3M): > 100 µM (inactive)
GI50 (NCI-H226): > 100 µM (inactive)
GI50 (NCI-H23): > 100 µM (inactive)
GI50 (NCI-H460): > 100 µM (inactive)
GI50 (NCI-H522): > 100 µM (inactive)
GI50 (NCI/ADR-RES): > 100 µM (inactive)
GI50 (OVCAR-3): > 100 µM (inactive)
GI50 (OVCAR-4): > 100 µM (inactive)
GI50 (OVCAR-5): > 100 µM (inactive)
GI50 (PC-3): > 100 µM (inactive)
GI50 (RPMI-8226): > 100 µM (inactive)
GI50 (SF-268): > 100 µM (inactive)
GI50 (SF-295): > 100 µM (inactive)
GI50 (SK-MEL-28): > 100 µM (inactive)
GI50 (SK-MEL-2): > 100 µM (inactive)
GI50 (SK-MEL-5): > 100 µM (inactive)
GI50 (SK-OV-3): > 100 µM (inactive)
GI50 (SN12C): > 100 µM (inactive)
GI50 (SNB-19): > 100 µM (inactive)
GI50 (SNB-75): > 100 µM (inactive)
GI50 (T47D): > 100 µM (inactive)
GI50 (TK-10): > 100 µM (inactive)
GI50 (U-251): > 100 µM (inactive)
GI50 (UACC-257): > 100 µM (inactive)
GI50 (UACC-62): > 100 µM (inactive)
GI50 (UO-31): > 100 µM (inactive)

N=C(N)NCCC[C@H](NC(=O)[C@@H]1CC2CCCCC2N1C(=O)[C@@H](NC(=O)[C@H](CO)NC(=O)[C@@H](NC(=O)CNC(=O)[C@@H]1CCCN1C(=O)[C@H](CCCNC(=N)N)NC(=O)[C@H](CCCNC(=N)N)NC(=N)CCCCCCC(=N)N[C@@H](CCCNC(=N)N)C(=O)N[C@@H](CCCNC(=N)N)C(=O)N1CCC[C@H]1C(=O)N1C[C@H](O)C[C@H]1C(=O)NCC(=O)N[C@H](C(=O)N[C@@H](CO)C(=O)N[C@H](C(=O)N1C2CCCCC2C[C@H]1C(=O)N[C@@H](CCCNC(=N)N)C(=O)O)C1Cc2ccccc2C1)C1Cc2ccccc2C1)C1Cc2ccccc2C1)C1Cc2ccccc2C1)C(=O)O (stereo not given in full) (I: RP[Hyp]G[Igl]S[Igl][Oic(3aξ,7aξ)]R-OH / II: RPG[Igl]S[Igl][Oic(3aξ,7aξ)]R-OH; linker I:N-II:N via X42)
GI50 (786-0): 2.99 µM (inactive)
GI50 (A549): 3.08 µM (inactive)
GI50 (ACHN): 1.91 µM (inactive)
GI50 (CAKI-1): 2.1 µM (inactive)
GI50 (CCRF-CEM): 3.11 µM (inactive)
GI50 (COLO 205): 1.69 µM (inactive)
GI50 (DU-145): 1.64 µM (inactive)
GI50 (EKVX): 2.03 µM (inactive)
GI50 (HCT-116): 4.38 µM (inactive)
GI50 (HCT-15): 2.22 µM
GI50 (HL-60): 0.15 µM (active)
GI50 (HOP-62): 2.23 µM (inactive)
GI50 (HOP-92): 2.21 µM (inactive)
GI50 (HT-29): 0.138 µM (active)
GI50 (Hs-578T): 2.91 µM (inactive)
GI50 (IGROV-1): 2.44 µM (inactive)
GI50 (K562): 0.993 µM (active)
GI50 (KM12): 2.07 µM (inactive)
GI50 (LOX IMVI): 2.24 µM (inactive)
GI50 (M14): 3.18 µM (inactive)
GI50 (MCF7): 1.99 µM (inactive)
GI50 (MDA-MB-231): 1.69 µM (inactive)
GI50 (MDA-MB-435): 1.99 µM (inactive)
GI50 (MDA-N): 2.08 µM (inactive)
GI50 (MOLT-4): 0.413 µM (active)
GI50 (Malme-3M): 2.31 µM (inactive)
GI50 (NCI-H23): 1.92 µM (inactive)
GI50 (NCI-H460): 1.91 µM (inactive)
GI50 (NCI-H522): 5.89 µM (inactive)
GI50 (NCI/ADR-RES): 2.9 µM (inactive)
GI50 (OVCAR-3): 1.79 µM (inactive)
GI50 (OVCAR-4): 2.73 µM (inactive)
GI50 (OVCAR-5): 3.48 µM (inactive)
GI50 (PC-3): 1.62 µM (inactive)
GI50 (RPMI-8226): 2.31 µM (inactive)
GI50 (RXF 393): 1.34 µM (inactive)
GI50 (SF-268): 1.92 µM (inactive)
GI50 (SF-295): 1.86 µM (inactive)
GI50 (SF-539): 2.36 µM (inactive)
GI50 (SK-MEL-28): 2.01 µM (inactive)
GI50 (SK-MEL-2): 2.33 µM (inactive)
GI50 (SK-MEL-5): 1.73 µM (inactive)
GI50 (SK-OV-3): 1.83 µM (inactive)
GI50 (SN12C): 2.07 µM (inactive)
GI50 (SNB-19): 2.36 µM (inactive)
GI50 (SR): 0.169 µM (active)
GI50 (SW-620): 2.28 µM (inactive)
GI50 (T47D): 2.19 µM (inactive)
GI50 (TK-10): 2.76 µM (inactive)
GI50 (U-251): 2.48 µM (inactive)
GI50 (UACC-257): 4.15 µM (inactive)
GI50 (UACC-62): 1.83 µM (inactive)
GI50 (UO-31): 5.43 µM (inactive)
